Experimental data from patent US20200038415A1, “AMINOSTEROL COMPOSITIONS AND METHODS OF USING THE SAME FOR TREATING ERECTILE DYSFUNCTION” (Enterin, Inc., priority 2018, published 2020).

Tests used:
[1] = in vivo; cited from earlier work
[2] = systemic administration; into the duodenum through the biliary tract (in mice); cited from earlier work
mouse models of PD = settings: oral; mice with constipation due to overexpression of human αS (West et al, in preparation); cited from earlier work
[3] = test system: IPANs (intrinsic primary afferent neuron); settings: perfusion through lumen of isolated bowel segment, PD mouse model; cited from earlier work
[4] = prior studies, cited from earlier work
[5] = cited from earlier work
[6] = Pharmacokinetics of orally administered squalamine (ENT-01) in Stage 1; type: in vivo, human; settings: oral, active zwitterion
Description: PK data were collected on the 10 patients enrolled in Stage 1 and 10 patients enrolled in Stage 2 to determine the extent of systemic absorption. In Stage 1, PK data were obtained at each visit, pre-medication, at 1, 2, 4, 8 and 24 hours (Table 10). In Stage 2, PK was measured on days 1 and 6 of the randomization period pre-medication, at 1, 2, 4 and 8 hours (Table 11).
The mean Cmax, Tmax and T1/2 and AUC of the squalamine ion following squalamine (ENT-01) oral dosing for Stage 1 patients. The PK analyses are only approximate, as the lower limit of the validated concentration range was 10 ng/ml; most of the measured concentrations fell below that value. The mean Cmax, Tmax and T1/2 and AUC of the squalamine ion following squalamine (ENT-01) oral dosing for Stage 2 patients. The PK analyses are only approximate, as the lower limit of the validated concentration range was 0.5 ng/ml.

SMILES	known pharmacological effects [1]	clearance and excretion [2]	gastro-intestinal motility (mouse models of PD)	effect on IPANs of the ENS [3]	gastrointestinal motility after intravenous administration ([4]; intravenous)	systemic blood levels, intravenous versus orally administered [4]	well tolerated intravenous dose ([5]; dilactate salt, single and repeat intravenous administration, Phase 1 and Phase 2 trials)	drug related GI toxicology ([5]; published clinical trials, systemic administration)	systemic absorption [6]
CC(C)[C@@H](CC[C@@H](C)[C@H]1CC[C@H]2[C@@H]3[C@H](O)C[C@H]4C[C@@H](NCCCNCCCCNCCCN)CC[C@]4(C)[C@H]3CC[C@]12C)OS(=O)(=O)O [Aminosterol 1436, trodusquemine]	reduction in food intake and weight loss								
CC(C)[C@@H](CC[C@@H](C)[C@H]1CC[C@H]2[C@@H]3[C@H](O)C[C@H]4C[C@@H](NCCCNCCCCN)CC[C@]4(C)[C@H]3CC[C@]12C)OS(=O)(=O)O [squalamine]	nausea, vomiting and/or reduced blood pressure	cleared by the liver and excreted as the intact molecule	stimulates gastro-intestinal motility	excitation of IPANs	not associated with increased gastrointestinal motility	one thousand-fold greater	at least 300 mg/m^2	has not been reported	not significantly absorbed into the systemic circulation
